Data on 18 molecules can be found in PMC11356821, “A New Class of Benzo[b]thiophene-chalcones as Cholinesterase Inhibitors: Synthesis, Biological Evaluation, Molecular Docking and ADME Studies” (Molecules, 2024).

Structures are written as SMILES.

The nature of one data set: Solubility in DMSO. In kind it is physicochemical.
Data set [1] deals with electrophorus electricus AChE (Electrophorus electricus, UniProt O42275). Briefly: AChE inhibition, Ellman's method. Type of data set: biochemical. As to conditions: for AChE (I %): inhibition at 50 µM; for inhibition at 50 µM: read-out: AChE (I %). How it is done: The potential effects of the synthesized compounds 4a–4i and 5a–5i on AChE and BChE were performed using electrophorus electricus AChE and equine serum BChE due to their low cost and high degree of similarity with their respective human enzymes. For the first screenings, they are excellent and widely used in vitro models.
AChE (EC EC 3.1.1.7) from electrophorus electricus and equine serum BChE (EC 3.1.1.8) were used for the inhibitory assays. ChE inhibitory activity was evaluated using Ellman’s method, as previously described, with slight modifications. The reaction mixture was prepared by dissolving acetylthiocholine iodide (1.5 mM), 5,5’-dithiobis-2-nitrobenzoate (DTNB) (1.5 mM) and the inhibitor (at the desired concentrations) or DMSO alone (control) in 0.1 M phosphate buffer (pH 8.0) to a final volume of 200 µL. The enzyme was added to the reaction mixture and the absorbance was monitored at 405 nm as soon as it was added. This test is based on the AChE enzyme hydrolyzing acetylthiocholine to produce acetate and thiocholine. Thiocholine reacts with DTNB to produce a yellow-colored anion. For the BChE assay, we followed the same procedures as above but used BChE as the enzyme and S-butyrylthiocholine chloride (BTCI) as the substrate. […] Galantamine is considered as a positive control under the same experimental conditions.

The next data set has as its target T1, equine serum BChE (Equus caballus, UniProt P81908).
T1 construct: from tissue; host or cells: equine serum
Briefly: biochemical. The conditions noted are these: for BChE (I %): inhibition at 50 µM; for inhibition at 50 µM: read-out: BChE (I %). How it is done: AChE (EC EC 3.1.1.7) from electrophorus electricus and equine serum BChE (EC 3.1.1.8) were used for the inhibitory assays. ChE inhibitory activity was evaluated using Ellman’s method, as previously described, with slight modifications. The reaction mixture was prepared by dissolving acetylthiocholine iodide (1.5 mM), 5,5’-dithiobis-2-nitrobenzoate (DTNB) (1.5 mM) and the inhibitor (at the desired concentrations) or DMSO alone (control) in 0.1 M phosphate buffer (pH 8.0) to a final volume of 200 µL. The enzyme was added to the reaction mixture and the absorbance was monitored at 405 nm as soon as it was added. This test is based on the AChE enzyme hydrolyzing acetylthiocholine to produce acetate and thiocholine. Thiocholine reacts with DTNB to produce a yellow-colored anion. For the BChE assay, we followed the same procedures as above but used BChE as the enzyme and S-butyrylthiocholine chloride (BTCI) as the substrate.

For the next data set, the system named is SH-SY5Y cells. Briefly: Cell viability, MTT assay. In kind it is cell-based. As to conditions: 24 h, at IC50 concentrations. How it is done:
Therefore, their impact on the viability of SH-SY5Y cells (neuroblastoma cell line) has been studied. For cell viability experiments, the compounds were tested at different concentrations (0, 30, 50, 100 and 200 μM) for 24 h and analyzed using the MTT test.
Human neuroblastoma cell line SH-SY5Y was obtained from ICLC Cell bank (cat. # HTL95013). The cells were cultured in high-glucose DMEM supplemented with 10% fetal bovine serum, 100 units/mL of penicillin and 100 µg/mL of streptomycin (all from Gibco, Life sciences; Thermo Fisher Scientific, Waltham, MA, USA) and maintained at 37 °C in a humidified atmosphere of 5% CO2 and 95% air. Cell viability was detected by the colorimetric 3-(4,5 dimethylthiazol-2-yl)-2,5-diphenyltetrazolium bromide (MTT) assay, as previously described, with minor modifications. Briefly, 1.5 × 10^4 cells/well were seeded in 96-well plates and incubated for 24 h with different concentrations (30–200 μM) of compounds. After incubation, 100 μL of the MTT reagent (0.5 mg/mL in DMEM) was added, and the cells were incubated for 3 h at 37 °C. The resulting violet formazan precipitate was dissolved in DMSO and quantified by spectrophotometry at 570 nm using a microplate reader (VANTAstar_BMG LABTECH GmbH, Offenburg, Germany). Viability data were reported in the percentage of control for each compound.

T1 sequence (P81908 whole entry): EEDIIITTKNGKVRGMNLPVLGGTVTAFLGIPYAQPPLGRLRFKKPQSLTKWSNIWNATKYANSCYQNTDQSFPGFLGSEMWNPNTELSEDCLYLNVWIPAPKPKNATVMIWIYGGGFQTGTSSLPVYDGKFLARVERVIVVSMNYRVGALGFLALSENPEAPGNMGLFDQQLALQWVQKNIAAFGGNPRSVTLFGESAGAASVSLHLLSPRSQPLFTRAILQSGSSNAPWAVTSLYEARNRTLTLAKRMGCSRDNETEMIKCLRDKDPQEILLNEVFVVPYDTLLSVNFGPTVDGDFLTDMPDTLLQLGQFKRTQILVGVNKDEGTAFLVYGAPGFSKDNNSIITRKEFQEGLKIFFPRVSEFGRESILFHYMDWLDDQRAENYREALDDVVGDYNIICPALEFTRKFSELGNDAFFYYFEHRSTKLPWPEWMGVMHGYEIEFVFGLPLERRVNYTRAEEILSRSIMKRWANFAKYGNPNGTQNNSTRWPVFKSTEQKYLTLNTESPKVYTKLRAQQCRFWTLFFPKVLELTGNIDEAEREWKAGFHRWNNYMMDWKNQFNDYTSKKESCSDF
electrophorus electricus AChE, sequence (O42275 24-633): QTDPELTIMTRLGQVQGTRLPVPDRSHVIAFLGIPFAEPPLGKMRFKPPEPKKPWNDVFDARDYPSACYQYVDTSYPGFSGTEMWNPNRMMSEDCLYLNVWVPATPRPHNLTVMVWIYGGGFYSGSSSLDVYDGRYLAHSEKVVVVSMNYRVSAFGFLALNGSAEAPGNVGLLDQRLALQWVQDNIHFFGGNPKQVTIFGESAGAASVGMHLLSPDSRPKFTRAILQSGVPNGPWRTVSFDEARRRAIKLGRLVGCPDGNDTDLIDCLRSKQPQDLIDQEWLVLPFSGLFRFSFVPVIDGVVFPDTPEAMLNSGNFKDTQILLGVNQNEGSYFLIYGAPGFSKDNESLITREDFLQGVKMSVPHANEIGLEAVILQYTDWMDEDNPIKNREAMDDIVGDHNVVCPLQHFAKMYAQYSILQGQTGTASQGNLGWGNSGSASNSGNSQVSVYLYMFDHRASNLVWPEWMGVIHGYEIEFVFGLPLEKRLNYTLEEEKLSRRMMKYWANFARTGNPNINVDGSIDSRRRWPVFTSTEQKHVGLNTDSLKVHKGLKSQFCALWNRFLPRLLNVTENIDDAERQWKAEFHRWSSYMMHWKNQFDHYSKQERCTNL

As to `c1ccc(-c2cc3ccccc3s2)cc1` [Compound 4a, 2-Phenylbenzothiophene], in the data set “Solubility in DMSO”, the “solubility in dimethyl sulfoxide (DMSO)” value is on record as “insoluble”. The “AChE (I %)” value in data set [1] is “Ins”. For the same molecule, at equine serum BChE, the “BChE (I %)” value is listed as “Ins”.
For `O=[N+]([O-])c1ccc(-c2cc3ccccc3s2)cc1` [Compound 4b, 2-(4-Nitrophenyl)benzothiophene], the inhibition at 50 µM in data set [1] is 8.2%; on equine serum BChE, 2.29%.
`COc1ccc(-c2cc3ccccc3s2)cc1` [Compound 4c, 2-(4-Methoxyphenyl)benzothiophene]: the inhibition at 50 µM in data set [1] stood at 9.6%; at equine serum BChE, 1.2%.
In the case of `N#Cc1ccc(-c2cc3ccccc3s2)cc1` [Compound 4d, 4-(Benzothiophene-2-yl)benzonitrile], in “Solubility in DMSO”, the “solubility in dimethyl sulfoxide (DMSO)” value is recorded as “insoluble”. Besides, in data set [1], the “AChE (I %)” value is “Ins”. For the same molecule, the “BChE (I %)” value at equine serum BChE is “Ins”.
Take `FC(F)(F)c1ccc(-c2cc3ccccc3s2)cc1` [Compound 4e, 2-(4-Trifluoromethylphenyl)benzothiophene]: the “solubility in dimethyl sulfoxide (DMSO)” value in the data set “Solubility in DMSO” was “insoluble”. In addition, in data set [1], the “AChE (I %)” value is reported as “Ins”. The “BChE (I %)” value at equine serum BChE was “Ins”.
In the case of `Clc1ccc(-c2cc3ccccc3s2)cc1` [Compound 4f, 2-(4-Chlorophenyl)benzothiophene], the “solubility in dimethyl sulfoxide (DMSO)” value in the data set “Solubility in DMSO” is on record as “insoluble”. For the same molecule, in data set [1], the “AChE (I %)” value is given as “Ins”. For the same molecule, the “BChE (I %)” value at equine serum BChE was “Ins”.
`Cc1ccc(-c2cc3ccccc3s2)cc1` [Compound 4g, 2-(4-Methylphenyl)benzothiophene]: in “Solubility in DMSO”, the “solubility in dimethyl sulfoxide (DMSO)” value is reported as “insoluble”. In data set [1], the “AChE (I %)” value is given as “Ins”. For the same molecule, the “BChE (I %)” value at equine serum BChE is listed as “Ins”.
As to `Nc1ccc(-c2cc3ccccc3s2)cc1` [Compound 4h, 2-(4-aminophenyl)benzothiophene], at equine serum BChE, the inhibition at 50 µM turned out to be 10.2%.
In the case of `Oc1ccc(-c2cc3ccccc3s2)cc1` [Compound 4i, 2-(4-hydroxyphenyl)benzothiophene], the figures for the inhibition at 50 µM (in data set [1]; on equine serum BChE) were 8.19% and 13.6%, respectively.
For `O=C(c1ccccc1)c1c(-c2ccccc2)sc2ccccc12` [Compound 5a, 3-Benzoyl-2-phenylbenzothiophene], the inhibition at 50 µM in data set [1] is 20.8%; at equine serum BChE, 35.7%. The “cytotoxic effects on cell viability” value in the data set on SH-SY5Y cells is recorded as “no cytotoxic effects”. In addition, inhibition against equine serum BChE was half-maximal at 83.4 ± 1.2 µM (IC50).
Turning to `O=C(c1ccc([N+](=O)[O-])cc1)c1c(-c2ccc([N+](=O)[O-])cc2)sc2ccccc12` [Compound 5b, 3-(4-Nitrobenzoyl)-2-(4-nitrophenyl)benzothiophene], the inhibition at 50 µM came to 11% in data set [1] and 16.8% at equine serum BChE.
For `COc1ccc(C(=O)c2c(-c3ccc(OC)cc3)sc3ccccc23)cc1` [Compound 5c, 3-(4-Methoxybenzoyl)-2-(4-methoxyphenyl)benzothiophene], in that order: 3.5% and 11.9%.
For `N#Cc1ccc(C(=O)c2c(-c3ccc(C#N)cc3)sc3ccccc23)cc1` [Compound 5d, 4-Cianophenyl-[2-(4-cianophenyl)-benzothiophen-3-yl]-methanone], the inhibition at 50 µM was determined as 4.5% in data set [1] and 14% at equine serum BChE.
`O=C(c1ccc(C(F)(F)F)cc1)c1c(-c2ccc(C(F)(F)F)cc2)sc2ccccc12` [Compound 5e, 3-(4-Trifluoromethylbenzoyl)-2-(4-trifluoromethylphenil)benzothiophene]: the figures for the inhibition at 50 µM (in data set [1]; at equine serum BChE) were 10% and 3.1%, respectively.
Molecule `O=C(c1ccc(Cl)cc1)c1c(-c2ccc(Cl)cc2)sc2ccccc12` [Compound 5f, 3-(4-Chlorobenzoyl)-2-(4-chlorophenyl)benzothiophene] yielded a half-maximal inhibitory concentration (IC50) in data set [1] of 62.1 ± 1.2 µM. In addition, the inhibition at 50 µM in data set [1] was 39.9%; at equine serum BChE it was 23.1%. The “cytotoxic effects on cell viability” value in the data set on SH-SY5Y cells is on record as “no cytotoxic effects”.
On to `Cc1ccc(C(=O)c2c(-c3ccc(C)cc3)sc3ccccc23)cc1` [Compound 5g, 3-(4-Methylbenzoyl)-2-(4-methylphenyl)benzothiophene], for which the inhibition at 50 µM turned out to be 28.3% in data set [1] and 13.1% on equine serum BChE.
Consider `Nc1ccc(C(=O)c2c(-c3ccc(N)cc3)sc3ccccc23)cc1` [Compound 5h, 3-(4-aminobenzoyl)-2-(4-aminophenyl)benzothiophene], for which the “cytotoxic effects on cell viability” value with SH-SY5Y cells was “no cytotoxic effects”. Also, at equine serum BChE, the IC50 worked out at 24.3 ± 0.5 µM and the inhibition at 50 µM is 58.3%.
For `O=C(c1ccc(O)cc1)c1c(-c2ccc(O)cc2)sc2ccccc12` [Compound 5i, 3-(4-hydroxybenzoyl)-2-(4-hydroxyphenyl)benzothiophene], the inhibition at 50 µM in data set [1] was 19.3%; at equine serum BChE, 42.2%. Also, the “cytotoxic effects on cell viability” value with SH-SY5Y cells is listed as “no cytotoxic effects”. Also, on equine serum BChE, the IC50 turned out to be 59.6 ± 11.6 µM.
